Results: publication PMC8570331, “8-Hydroxyquinoline-Amino Acid Hybrids and Their Half-Sandwich Rh and Ru Complexes: Synthesis, Anticancer Activities, Solution Chemistry and Interaction with Biomolecules” (International Journal of Molecular Sciences, 2021)
“Also recorded” adds a separate entry of the source.

The compounds below were run on MRC-5 human lung fibroblast cell line (assay: MTT cytotoxicity assay in MRC-5). Conditions: 72 h incubation.
Assay type: cell-based
Method: (§1) The in vitro cytotoxic activity of the novel water-soluble amino acid derivatives of HQCl and their RhCp* and RuCym complexes was measured by the thiazolyl blue tetrazolium bromide (MTT) assay in two human colon adenocarcinoma cell lines (Colo-205 and Colo-320) and in one non-tumoral human lung fibroblast cell line (MRC-5). The results are given in terms of IC50 values (Table 1). Colo-205 is a drug-sensitive cell line with a normal ABCB1 transporter expression pattern, while Colo-320 is multidrug-resistant and overexpresses the ABCB1 system.
(§2) All cell culture reagents were obtained from Sigma-Aldrich and plasticware from Sarstedt (Nümbrecht, Germany). Human colonic Colo-205 doxorubicin-sensitive and Colo-320/MDR-LRP multidrug-resistant adenocarcinoma and MRC-5 human embryonal lung fibroblast cell lines were purchased from LGC Promochem, Teddington, UK. The colonic adenocarcinoma cells were cultured in Roswell Park Memorial Institute (RPMI) 1640 medium supplemented with 10% heat-inactivated fetal bovine serum, 2 mM L-glutamine, 1 mM sodium pyruvate and […]. The MRC-5 cell line was cultured in Eagle’s Minimal Essential Medium (EMEM, Sigma-Aldrich, St. Louis, MO, USA) supplemented with a non-essential amino acid (NEAA) mixture (Sigma-Aldrich, St. Louis, MO, USA) a selection of vitamins, 10% heat-inactivated foetal bovine serum (FBS), 2 mM L-glutamine (Sigma-Aldrich, St. Louis, MO, USA), 1 mM Na-pyruvate (Sigma-Aldrich, St. Louis, MO, USA), nystatin (Sigma-Aldrich, St. Louis, MO, USA) and a penicillin-streptomycin mixture (Sigma-Aldrich, St. Louis, MO, USA) in con-centrations of 100 U/L and 10 mg/L, respectively. The cells were incubated at 37 °C, in a 5% CO2, 95% air atmosphere. All cell lines were detached with Trypsin-Versene (EDTA) solution for 5 min at 37 °C.
(§3) The tested compounds were dissolved in 10% (v/v) DMSO/H2O using 4 mM concentration. Doxorubicin (Merck, Darmstadt, Germany) was used as a positive control. Then stock solutions were diluted in complete culture medium, and two-fold serial dilutions of compounds were prepared in 100 μL of the medium, horizontally. The semi-adherent colonic adenocarcinoma cells were treated with Trypsin-Versene (EDTA) solution. They were adjusted to a density of 1 × 10^4 cells in 100 μL of RPMI 1640 or EMEM medium and were added to each well, with the exception of the medium control wells. The final volume of the wells containing compounds and cells was 200 μL. The plates containing Colo-205, Colo-320 or MRC-5 cells were incubated at 37 °C for 72 h; at the end of the incubation period, 20 μL of MTT solution (from a stock solution of 5 mg/mL) were added to each well. After incubation at 37 °C for 4 h, 100 μL of SDS solution (10% in 0.01 M HCI) were added to each well, and the plates were further incubated at 37 °C overnight. […] The IC50 values were obtained from at least 3 independent experiments.

| Structure (SMILES) | IC50 [µM] |
| --- | --- |
| Cc1c(C)c(C)[c-](C)c1C.O=C(O)[C@H]1CCC[NH+]1Cc1cc(Cl)c2cccnc2c1[O-].[Cl-].[Cl-].[Rh+3] [RhCp*–HQCl-D-Pro, [RhCp*(HQCl-D-Pro)Cl]Cl] | 82.1 ± 5.1 |
| Cc1c(C)c(C)[c-](C)c1C.O=C(O)[C@H]1CCCC[NH+]1Cc1cc(Cl)c2cccnc2c1[O-].[Cl-].[Cl-].[Rh+3] [RhCp*–HQCl-D-hPro, [RhCp*(HQCl-D-hPro)Cl]Cl] | 37.6 ± 2.3 |
| Cc1ccc(C(C)C)cc1.O=C(O)[C@H]1CCC[NH+]1Cc1cc(Cl)c2cccnc2c1[O-].[Cl-].[Cl-].[Ru+2] [RuCym–HQCl-D-Pro, [RuCym(HQCl-D-Pro)Cl]Cl] | > 100 |
| Cc1ccc(C(C)C)cc1.O=C(O)[C@H]1CCCC[NH+]1Cc1cc(Cl)c2cccnc2c1[O-].[Cl-].[Cl-].[Ru+2] [RuCym–HQCl-D-hPro, [RuCym(HQCl-D-hPro)Cl]Cl] | > 100 |

Same assay, conditions: Homo sapiens, MRC5, 72 h incubation

| Structure (SMILES) | IC50 [µM] |
| --- | --- |
| O=C(O)[C@H]1CCCCN1Cc1cc(Cl)c2cccnc2c1O [HQCl-D-hPro, (R)-5-chloro-7-((homoproline-1-yl)methyl)8-hydroxyquinoline] | 3.63 ± 0.1 |

These compounds were tested against T1, HSA site II (subdomain IIIA) (Homo sapiens, UniProt P02768) (assay: Dansylglycine (DG) site marker displacement, spectrofluorometry). Conditions: cHSA = 1 µM, cDG = 1 µM, pH 7.4 (PBS’).
T1 construct: purchased Sigma-Aldrich A8763
Assay type: binding
Method: Tryptophan (Trp-214) quenching and dansylglycine (DG) site marker displacement experiments were performed to calculate binding constants for site I and II, respectively, similar to our previous works.
Fluorescence measurements were carried out on a Fluoromax (Horiba Jobin Yvon, Longjumeau, France) spectrofluorometer using 1 cm × 1 cm quartz cuvette. Samples contained 1 µM HSA or 1 µM DG and 1 µM HSA, or 20 µM (nucleotide) ct-DNA and 5 µM EB, and the complex concentration was varied between 0 and 40 µM or 0 and 300 µM, respectively. Spectroscopic measurements were carried out on individually prepared samples. Excitation wavelengths were 295 nm for Trp-214 quenching, 340 nm for the DG displacement studies and 510 nm for the ct-DNA–EB system. The calculated conditional stability constants for HSA–complex species were obtained using the computer program HypSpec. Calculations always were based on data obtained from at least two independent measurements. Self-absorbance and inner filter effect had to be taken into account, and corrections were made as was described in our former works.

T1 sequence (P02768 25-609): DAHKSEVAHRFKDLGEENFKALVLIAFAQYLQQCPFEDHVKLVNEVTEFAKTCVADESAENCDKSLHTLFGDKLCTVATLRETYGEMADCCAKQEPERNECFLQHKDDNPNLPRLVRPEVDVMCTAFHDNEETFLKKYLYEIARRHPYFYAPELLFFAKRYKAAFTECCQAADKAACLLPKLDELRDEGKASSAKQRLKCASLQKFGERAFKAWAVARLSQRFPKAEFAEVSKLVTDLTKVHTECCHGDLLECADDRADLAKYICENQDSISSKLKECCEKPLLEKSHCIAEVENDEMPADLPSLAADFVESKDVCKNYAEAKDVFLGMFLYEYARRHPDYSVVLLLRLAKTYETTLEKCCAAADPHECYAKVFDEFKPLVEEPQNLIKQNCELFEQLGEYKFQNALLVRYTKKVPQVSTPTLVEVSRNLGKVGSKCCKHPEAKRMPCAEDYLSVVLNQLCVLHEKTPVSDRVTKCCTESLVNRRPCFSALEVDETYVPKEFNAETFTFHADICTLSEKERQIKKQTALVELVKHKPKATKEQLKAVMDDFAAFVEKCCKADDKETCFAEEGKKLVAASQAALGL

| Structure (SMILES) | DG Displacement logKDG′, Site II |
| --- | --- |
| Cc1c(C)c(C)[c-](C)c1C.O=C(O)[C@H]1CCC[NH+]1Cc1cc(Cl)c2cccnc2c1[O-].[Cl-].[Cl-].[Rh+3] [RhCp*–HQCl-D-Pro, [RhCp*(HQCl-D-Pro)Cl]Cl] | 5.5 ± 0.1 |
| Cc1c(C)c(C)[c-](C)c1C.O=C(O)[C@H]1CCCC[NH+]1Cc1cc(Cl)c2cccnc2c1[O-].[Cl-].[Cl-].[Rh+3] [RhCp*–HQCl-D-hPro, [RhCp*(HQCl-D-hPro)Cl]Cl] | 5.4 ± 0.1 |
| Cc1ccc(C(C)C)cc1.O=C(O)[C@H]1CCC[NH+]1Cc1cc(Cl)c2cccnc2c1[O-].[Cl-].[Cl-].[Ru+2] [RuCym–HQCl-D-Pro, [RuCym(HQCl-D-Pro)Cl]Cl] | 5.6 ± 0.1 |
| Cc1ccc(C(C)C)cc1.O=C(O)[C@H]1CCCC[NH+]1Cc1cc(Cl)c2cccnc2c1[O-].[Cl-].[Cl-].[Ru+2] [RuCym–HQCl-D-hPro, [RuCym(HQCl-D-hPro)Cl]Cl] | 5.7 ± 0.1 |

Each compound was assayed on pGEX-6P-1 plasmid DNA (assay: In vitro DNA cleavage analysis, agarose gel electrophoresis). Conditions: 50 ng plasmid, 0–100 µM compound, 37 °C, up to 72 h, pH 7.4.
Assay type: biochemical
Method: In this assay, both single-stranded and double-stranded cleavage can be detected using bacterial plasmid DNA since the plasmid changes from the intact superhelical (sc) conformation to open circular (oc) and linear over digestion, which can be well detected by agarose gel electrophoresis. […] The RhCp* complex behaved similarly up to 10 µM, whereas at 100 µM concentration, the superhelical DNA remained intact during the incubation period, although the disappearance of the open circular DNA line is seen after 72 h. The observed effect is clearly not related to DNA cleavage; since fragmentation or the appearance of linear DNA could not be seen, the supercoiled DNA form was still visible. We can assume that the decrease in intensity might be due to the competition for DNA between the concentrated complex and EB (that is used for the detection of DNA in the gel).
Before the measurements, the reaction buffer was treated with 5 mg/L Chelex-100 (Sigma-Aldrich) cation exchange resin for 30 min at 25 °C. This was followed by filtration of the buffer through 0.2 µm pore size sterile, non-pyrogenic/endotoxin-free non-cytotoxic PES filter (Sarstedt) under laminal flow. The tested compounds were dissolved in this filtered cation exchanged buffer. pGEX-6P-1 DNA was purified by GeneJET plasmid maxiprep kit (Thermo Scientific™, Waltham, MA, USA) and was treated with Chelex-100 resin and filtered as described previously, and was followed by buffer exchange of the DNA sample using Amicon 10K 0.5 mL filters (4 × 5 min, 14,000 g, 25 °C) to the filtered reaction buffer. […] Based on agarose gel electrophoresis, no genomic DNA contamination was detected, and the plasmid DNA is largely in superhelical conformation with a small fraction of open circular form. In a typical reaction, 10 µL aliquots containing 50 ng DNA and 0–100 µM compound were incubated at 37 °C from 0 h up to 3 days. The reaction mixture was immediately examined after incubation or frozen at −30 °C until the gel electrophoresis experiment. […] Images were recorded by a Uvitec BTS 20MS gel documentation system.

| Structure (SMILES) | DNA cleavage / DNA damage |
| --- | --- |
| O=C(O)[C@H]1CCCCN1Cc1cc(Cl)c2cccnc2c1O [HQCl-D-hPro, (R)-5-chloro-7-((homoproline-1-yl)methyl)8-hydroxyquinoline] | do not induce DNA cleavage; also recorded: No DNA damage was observed |
| Cc1c(C)c(C)[c-](C)c1C.O=C(O)[C@H]1CCCC[NH+]1Cc1cc(Cl)c2cccnc2c1[O-].[Cl-].[Cl-].[Rh+3] [RhCp*–HQCl-D-hPro, [RhCp*(HQCl-D-hPro)Cl]Cl] | do not induce DNA cleavage |
| Cc1ccc(C(C)C)cc1.O=C(O)[C@H]1CCCC[NH+]1Cc1cc(Cl)c2cccnc2c1[O-].[Cl-].[Cl-].[Ru+2] [RuCym–HQCl-D-hPro, [RuCym(HQCl-D-hPro)Cl]Cl] | do not induce DNA cleavage; also recorded: No DNA damage was observed |

The compounds below were run on Colo-205 human colon adenocarcinoma cell line (doxorubicin-sensitive) (assay: MTT cytotoxicity assay in Colo-205). Conditions: 72 h incubation.
Assay type: cell-based
Method: as §1, §2, §3

| Structure (SMILES) | IC50 [µM] |
| --- | --- |
| Cc1c(C)c(C)[c-](C)c1C.O=C(O)[C@H]1CCC[NH+]1Cc1cc(Cl)c2cccnc2c1[O-].[Cl-].[Cl-].[Rh+3] [RhCp*–HQCl-D-Pro, [RhCp*(HQCl-D-Pro)Cl]Cl] | 31.5 ± 1.4 |
| Cc1c(C)c(C)[c-](C)c1C.O=C(O)[C@H]1CCCC[NH+]1Cc1cc(Cl)c2cccnc2c1[O-].[Cl-].[Cl-].[Rh+3] [RhCp*–HQCl-D-hPro, [RhCp*(HQCl-D-hPro)Cl]Cl] | 21.5 ± 0.6 |
| Cc1ccc(C(C)C)cc1.O=C(O)[C@H]1CCC[NH+]1Cc1cc(Cl)c2cccnc2c1[O-].[Cl-].[Cl-].[Ru+2] [RuCym–HQCl-D-Pro, [RuCym(HQCl-D-Pro)Cl]Cl] | > 100 |
| Cc1ccc(C(C)C)cc1.O=C(O)[C@H]1CCCC[NH+]1Cc1cc(Cl)c2cccnc2c1[O-].[Cl-].[Cl-].[Ru+2] [RuCym–HQCl-D-hPro, [RuCym(HQCl-D-hPro)Cl]Cl] | > 100 |
